Reference: ChEMBL document CHEMBL3885881, “DrugMatrix”

Species on record: Rattus norvegicus
Assay: DrugMatrix - Regimen: Daily Repeat
Assay type: toxicity, organism-based, Sprague-Dawley
Design: regimen Daily Repeat, gender Male, age 6-8 weeks
Conditions: in vivo, po, route oral GAVAGE, […]; for ABSOLUTE BASOPHIL / ABSOLUTE EOSINOPHIL / ABSOLUTE LYMPHOCYTE / ABSOLUTE MONOCYTE / ABSOLUTE SEGMENTED NEUTROPHIL / BASOPHIL / EOSINOPHIL / ERYTHROCYTE COUNT / HEMATOCRIT / HEMOGLOBIN / LEUKOCYTE COUNT / LYMPHOCYTE / MEAN CORPUSCULAR HEMOGLOBIN / MEAN CORPUSCULAR HEMOGLOBIN CONCENTRATION / MEAN CORPUSCULAR VOLUME / MONOCYTE / NEUTROPHIL / NUCLEATED RED BLOOD CELLS / PLATELET COUNT: tissue Blood; for ALANINE AMINOTRANSFERASE / ALBUMIN / ALKALINE PHOSPHATASE / ASPARTATE AMINOTRANSFERASE / BLOOD UREA NITROGEN / CARBON DIOXIDE / CHLORIDE / CHOLESTEROL / CREATINE PHOSPHOKINASE / CREATININE / GLUCOSE / LACTATE DEHYDROGENASE / LIPASE / PHOSPHORUS / POTASSIUM / SODIUM / TOTAL BILIRUBIN / TOTAL PROTEIN / URIC ACID: tissue Plasma
[1] = 0 mg/kg, 72 h, dose level Control, time 3 day
[2] = 0 mg/kg, 120 h, dose level Control, time 5 day
[3] = 30 mg/kg, 72 h, dose level Low, time 3 day

With `CCC(C)n1ncn(-c2ccc(N3CCN(c4ccc(OCC5COC(Cn6cncn6)(c6ccc(Cl)cc6Cl)O5)cc4)CC3)cc2)c1=O` (centres undefined) [ITRACONAZOLE] the “ABSOLUTE BASOPHIL” value [1] was 0 CELLS/uL, the “ABSOLUTE EOSINOPHIL” value [1] was 104.17 CELLS/uL and the “ABSOLUTE LYMPHOCYTE” value [1] was 14547 CELLS/uL. For the same compound, the “ABSOLUTE MONOCYTE” value [1] was 292 CELLS/uL, the “ABSOLUTE SEGMENTED NEUTROPHIL” value [1] was 1640.17 CELLS/uL and the BASOPHIL [1] was 0%. For the same compound, the EOSINOPHIL [1] was 0.67%, the “ERYTHROCYTE COUNT” value [1] was 5.35 x10E6/uL and the HEMATOCRIT [1] was 33.67%. For the same compound, the HEMOGLOBIN [1] was 13.38 G/DL, the “LEUKOCYTE COUNT” value [1] was 16.58 x10E3/uL and the LYMPHOCYTE [1] was 87.5%. For the same compound, the “MEAN CORPUSCULAR HEMOGLOBIN” value [1] was 25.05 pg, the “MEAN CORPUSCULAR HEMOGLOBIN CONCENTRATION” value [1] was 39.78 G/DL and the “MEAN CORPUSCULAR VOLUME” value [1] was 62.97 fL. The MONOCYTE [1] was 1.83%, the NEUTROPHIL [1] was 10% and the “NUCLEATED RED BLOOD CELLS” value [1] was 0 /100WBC. The “PLATELET COUNT” value [1] was 1274.5 x10E3/uL, the “ALANINE AMINOTRANSFERASE” value [1] was 76.83 u/L and the ALBUMIN [1] was 3.97 G/DL. The “ALKALINE PHOSPHATASE” value [1] was 347 u/L, the “ASPARTATE AMINOTRANSFERASE” value [1] was 97.17 u/L and the “BLOOD UREA NITROGEN” value [1] was 14.33 mg/dL. For the same compound, the “CARBON DIOXIDE” value [1] was 25.5 mmol/L, the CHLORIDE [1] was 100.33 MEQ/L and the CHOLESTEROL [1] was 68.67 mg/dL. The “CREATINE PHOSPHOKINASE” value [1] was 659.17 u/L, the CREATININE [1] was 0.32 mg/dL and the GLUCOSE [1] was 160.67 mg/dL. For the same compound, the “LACTATE DEHYDROGENASE” value [1] was 271.5 u/L, the LIPASE [1] was 11.67 u/L and the PHOSPHORUS [1] was 10.65 mg/dL. The POTASSIUM [1] was 5.95 MEQ/L, the SODIUM [1] was 139.65 MEQ/L and the “TOTAL BILIRUBIN” value [1] was 0.2 mg/dL. The “TOTAL PROTEIN” value [1] was 5.72 G/DL, the “URIC ACID” value [1] was 1.37 mg/dL and the “ABSOLUTE BASOPHIL” value [2] was 0 CELLS/uL. The “ABSOLUTE EOSINOPHIL” value [2] was 331.5 CELLS/uL, the “ABSOLUTE LYMPHOCYTE” value [2] was 15021.67 CELLS/uL and the “ABSOLUTE MONOCYTE” value [2] was 376.5 CELLS/uL. For the same compound, the “ABSOLUTE SEGMENTED NEUTROPHIL” value [2] was 3070.33 CELLS/uL, the BASOPHIL [2] was 0% and the EOSINOPHIL [2] was 1.83%. The “ERYTHROCYTE COUNT” value [2] was 5.24 x10E6/uL, the HEMATOCRIT [2] was 33.22% and the HEMOGLOBIN [2] was 13.2 G/DL. For the same compound, the “LEUKOCYTE COUNT” value [2] was 18.8 x10E3/uL, the LYMPHOCYTE [2] was 79.67% and the “MEAN CORPUSCULAR HEMOGLOBIN” value [2] was 25.17 pg. For the same compound, the “MEAN CORPUSCULAR HEMOGLOBIN CONCENTRATION” value [2] was 39.73 G/DL, the “MEAN CORPUSCULAR VOLUME” value [2] was 63.38 fL and the MONOCYTE [2] was 2%. The NEUTROPHIL [2] was 16.5%, the “NUCLEATED RED BLOOD CELLS” value [2] was 0 /100WBC and the “PLATELET COUNT” value [2] was 1142.67 x10E3/uL. For the same compound, the “ALANINE AMINOTRANSFERASE” value [2] was 52.5 u/L, the ALBUMIN [2] was 3.9 G/DL and the “ALKALINE PHOSPHATASE” value [2] was 284.5 u/L. The “ASPARTATE AMINOTRANSFERASE” value [2] was 81.33 u/L, the “BLOOD UREA NITROGEN” value [2] was 16 mg/dL and the “CARBON DIOXIDE” value [2] was 25.33 mmol/L. The CHLORIDE [2] was 99.5 MEQ/L, the CHOLESTEROL [2] was 74.83 mg/dL and the “CREATINE PHOSPHOKINASE” value [2] was 448.33 u/L. For the same compound, the CREATININE [2] was 0.37 mg/dL, the GLUCOSE [2] was 164.17 mg/dL and the “LACTATE DEHYDROGENASE” value [2] was 290.67 u/L. It also gave an LIPASE [2] of 6.83 u/L, a PHOSPHORUS [2] of 11.5 mg/dL and a POTASSIUM [2] of 6.28 MEQ/L. The SODIUM [2] was 139.5 MEQ/L, the “TOTAL BILIRUBIN” value [2] was 0.13 mg/dL and the “TOTAL PROTEIN” value [2] was 5.55 G/DL. The “URIC ACID” value [2] was 1.12 mg/dL, the “ABSOLUTE BASOPHIL” value [3] was 0 CELLS/uL and the “ABSOLUTE EOSINOPHIL” value [3] was 60 CELLS/uL. For the same compound, the “ABSOLUTE LYMPHOCYTE” value [3] was 9936.67 CELLS/uL, the “ABSOLUTE MONOCYTE” value [3] was 160.67 CELLS/uL and the “ABSOLUTE SEGMENTED NEUTROPHIL” value [3] was 876 CELLS/uL. The BASOPHIL [3] was 0%, the EOSINOPHIL [3] was 0.67% and the “ERYTHROCYTE COUNT” value [3] was 6.06 x10E6/uL. The HEMATOCRIT [3] was 37.97%, the HEMOGLOBIN [3] was 14.57 G/DL and the “LEUKOCYTE COUNT” value [3] was 11.03 x10E3/uL. The LYMPHOCYTE [3] was 89.67%, the “MEAN CORPUSCULAR HEMOGLOBIN” value [3] was 24 pg and the “MEAN CORPUSCULAR HEMOGLOBIN CONCENTRATION” value [3] was 38.4 G/DL. The “MEAN CORPUSCULAR VOLUME” value [3] was 62.6 fL, the MONOCYTE [3] was 1.33% and the NEUTROPHIL [3] was 8.33%. For the same compound, the “NUCLEATED RED BLOOD CELLS” value [3] was 0 /100WBC, the “PLATELET COUNT” value [3] was 1209.33 x10E3/uL and the “ALANINE AMINOTRANSFERASE” value [3] was 56 u/L. The ALBUMIN [3] was 4.23 G/DL, the “ALKALINE PHOSPHATASE” value [3] was 522.33 u/L and the “ASPARTATE AMINOTRANSFERASE” value [3] was 74.33 u/L. The “BLOOD UREA NITROGEN” value [3] was 11 mg/dL, the “CARBON DIOXIDE” value [3] was 22.67 mmol/L and the CHLORIDE [3] was 100.33 MEQ/L. For the same compound, the CHOLESTEROL [3] was 56 mg/dL, the “CREATINE PHOSPHOKINASE” value [3] was 240 u/L and the CREATININE [3] was 0.11 mg/dL. For the same compound, the GLUCOSE [3] was 184.33 mg/dL, the “LACTATE DEHYDROGENASE” value [3] was 106 u/L and the LIPASE [3] was 10 u/L. The PHOSPHORUS [3] was 12.87 mg/dL, the POTASSIUM [3] was 6.49 MEQ/L and the SODIUM [3] was 141.73 MEQ/L. For the same compound, the “TOTAL BILIRUBIN” value [3] was 0.17 mg/dL, the “TOTAL PROTEIN” value [3] was 6.4 G/DL and the “URIC ACID” value [3] was 1.97 mg/dL.
